# Measurements published in patent US12421211B2, “Heterocyclic compounds” (Hoffmann-La Roche Inc., priority 2021, dated 2025).
# Where a name gives a salt, the structure may show the parent alone.
# Test system: Acinetobacter baumannii ATCC17961
# Test: Antimicrobial susceptibility testing: 90% growth inhibitory concentration (IC90) determination
# Format: cell-based
# Conditions: 90% growth inhibitory concentration, Acinetobacter baumannii ATCC17961, Iso-Sensitest broth, OD 600 nm over 16 h; read-out: ATCC 17961 IC90
# Outline: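 Growth inhibition derived in log phase from OD600 kinetics (every 20 minutes, 16h, 35±2° C) of ATCC17961 in Iso-Sensitest medium, inoculum ~5×10^5 CFU/ml. Compounds tested as twofold series, 10 points (e.g. 50 to 0.097 μM final); IC90 and IC50 reported.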
row,Structure (SMILES),IC90 [nM]
1,"COCCn1cc(-c2ccc(-c3cnc(C(=O)Nc4ccc(C(=O)N5CCN(C(=O)C6[C@H]7C[N+](C)(C)C[C@@H]67)CC5)c(Cl)c4)n3C)c(F)c2F)c(C)n1 (stereo partly drawn) [Example B25, N-[3-chloro-4-[4-[(1R,5S)-3,3-dimethyl-3-azoniabicyclo[3.10]hexane-6-carbonyl]piperazine-1-carbonyl]phenyl]-5-[2,3-difluoro-4-[1-(2-methoxyethyl)-3-methyl-pyrazol-4-yl]phenyl]-1-methyl-imidazole-2-carboxamide; formate]",270
2,"Cc1nn(CC(=O)Nc2ccc(F)nn2)cc1-c1ccc(-c2cnc(C(=O)Nc3ccc(C(=O)N4CCN(C(=O)C5CC[N+](CC(=O)O)(CC6CNC6)CC5)CC4)c(Cl)c3)n2C)c(F)c1F (stereo not drawn) [Example L6, cis 2-[1-(azetidin-3-ylmethyl)-4-[4-[2-chloro-4-[[5-[2,3-difluoro-4-[1-[2-[(6-fluoropyridazin-3-yl)aminol-2-oxo-ethyl]-3-methyl-pyrazol-4-yl]phenyl]-methyl-imidazole-2-carbonyl]amino]benzoyl]piperazine-1-carbonyl]piperidin-1-ium-1-yl]acetic acid; formate]",197

# Same assay, conditions: Acinetobacter baumannii, ATCC17961, 16 h, 90% growth inhibitory concentration, Acinetobacter baumannii ATCC17961, Iso-Sensitest broth, OD 600 nm over 16 h; read-out: ATCC 17961 IC90
row,Structure (SMILES),IC90 [nM]
1,"COCCn1ncc(-c2ccc(-c3cnc(C(=O)Nc4ccc(C(=O)N5CCC(C(=O)N6CC[N+](C)(CC7CNC7)CC6)CC5)c(Cl)c4)n3C)c(F)c2F)c1C [Example B23, N-[4-[4-[4-(azetidin-3-ylmethyl)-4-methyl-piperazin-4-ium-1-carbonyl]piperidine-1-carbonyl]-3-chloro-phenyl]-5-[2,3-difluoro-4-[1-(2-methoxyethyl)-5-methyl-pyrazol-4-yl]phenyl]-1-methyl-imidazole-2-carboxamide; formate]",98
2,"COCCn1ncc(-c2ccc(-c3cnc(C(=O)Nc4ccc(C(=O)N5CCN(C(=O)C6(O)CCNCC6)CC5)c(Cl)c4)n3C)c(F)c2F)c1C [Example D24, N-[3-chloro-4-[4-(4-hydroxypiperidine-4-carbonyl)piperazine-1-carbonyl]phenyl]-5-[2,3-difluoro-4-[1-(2-methoxyethyl)-5-methyl-pyrazol-4-yl]phenyl]-1-methyl-imidazole-2-carboxamide; formic acid]",73
3,"COCCn1ncc(-c2ccc(-c3cnc(C(=O)Nc4ccc(C(=O)N5CCN(C(=O)C6CC[N+](C)(CC7CNC7)CC6)CC5)c(Cl)c4)n3C)c(F)c2F)c1C (stereo not drawn) [Example B21, N-[4-[4-[1-(azetidin-3-ylmethyl)-1-methyl-piperidin-1-ium-4-carbonyl]piperazine-1-carbonyl]-3-chloro-phenyl]-5-[2,3-difluoro-4-[1-(2-methoxyethyl)-5-methyl-pyrazol-4-yl]phenyl]-1-methyl-imidazole-2-carboxamide; formic acid; formate]",100
4,"COCCn1cc(-c2ccc(-c3cnc(C(=O)Nc4ccc(C(=O)N5CCN(C(=O)[C@@H]6C[C@@H](O)CN6)CC5)c(Cl)c4)n3C)c(F)c2F)c(C)n1 [Example D31, N-[3-chloro-4-[4-[(2S,4R)-4-hydroxypyrrolidine-2-carbonyl]piperazine-1-carbonyl]phenyl]-5-[2,3-difluoro-4-[1-(2-methoxyethyl)-3-methyl-pyrazol-4-yl]phenyl]-1-methyl-imidazole-2-carboxamide; formic acid]",220
5,"Cn1cc(-c2ccc(-c3cnc(C(=O)Nc4ccc(C(=O)N5CCN(C(=O)C6CCNCC6)CC5)c(Cl)c4)n3C)c(F)c2F)cn1 [Example E20, N-[3-chloro-4-[4-(piperidine-4-carbonyl)piperazine-1-carbonyl]phenyl]-5-[2,3-difluoro-4-(1-methyl-pyrazol-4-yl)phenyl]-1-methyl-imidazole-2-carboxamide]",530
6,"Cn1c(-c2ccc(-c3c[nH]nc3-c3cccc(F)c3)c(F)c2F)cnc1C(=O)Nc1ccc(C(=O)N2CCN(C(=O)C3CC[N+](C)(C)CC3)CC2)c(Cl)c1 [Example F45, N-[3-chloro-4-[4-(1,1-dimethylpiperidin-1-ium-4-carbonyl)piperazine-1-carbonyl]phenyl]-5-[2,3-difluoro-4-[3-(3-fluorophenyl)-1H-pyrazol-4-yl]phenyl]-1-methyl-imidazole-2-carboxamide; formate]",310
7,"COCCn1ncc(-c2ccc(-c3cnc(C(=O)Nc4ccc(C(=O)N5CCC(NS(=O)(=O)C6CC[N+](C)(C)CC6)CC5)c(Cl)c4)n3C)c(F)c2F)c1C [Example D37, N-[3-chloro-4-[4-[(1,1-dimethylpiperidin-1-ium-4-yl)sulfonylamino]piperidine-1-carbonyl]phenyl]-5-[2,3-difluoro-4-[1-(2-methoxyethyl)-5-methyl-pyrazol-4-yl]phenyl]-1-methyl-imidazole-2-carboxamide; formate]",150
8,"Cc1nn(CCOCCN)c(C)c1-c1ccc(-c2cnc(C(=O)Nc3ccc(C(=O)N4CCN(C(=O)[C@@H]5C[C@@H](O)C[N+]5(C)C)CC4)c(Cl)c3)n2C)c(F)c1F [Example K1, 5-[4-[1-[2-(2-aminoethoxy)ethyl]-3,5-dimethyl-pyrazol-4-yl]-2,3-difluoro-phenyl]-N-[3-chloro-4-[4-[(2S,4R)-4-hydroxy-1,1-dimethyl-pyrrolidin-1-ium-2-carbonyl]piperazine-1-carbonyl]phenyl]-1-methyl-imidazole-2-carboxamide; 2,2,2-trifluoroacetate]",600
9,"Cn1c(-c2ccc(-c3c[nH]nc3-c3cn[nH]c3)c(F)c2F)cnc1C(=O)Nc1ccc(C(=O)N2CCN(C(=O)C3CC[N+](C)(C)CC3)CC2)c(Cl)c1 [Example F48, N-[3-chloro-4-[4-(1,1-dimethylpiperidin-1-ium-4-carbonyl)piperazine-1-carbonyl]phenyl]-5-[2,3-difluoro-4-[3-(1H-pyrazol-4-yl)-1H-pyrazol-4-yl]phenyl]-1-methyl-imidazole-2-carboxamide; formate]",470
10,"Cc1nn(CC(=O)Nc2ccccc2F)cc1-c1ccc(-c2cnc(C(=O)Nc3ccc(C(=O)N4CCN(C(=O)C5CC[N+](C)(C)CC5)CC4)c(Cl)c3)n2C)c(F)c1F [Example G6, N-[3-chloro-4-[4-(1,1-dimethylpiperidin-1-ium-4-carbonyl)piperazine-1-carbonyl]phenyl]-5-[2,3-difluoro-4-[1-[2-(2-fluoroanilino)-2-oxo-ethyl]-3-methyl-pyrazol-4-yl]phenyl]-1-methyl-imidazole-2-carboxamide; formate]",140
11,"COCCn1ncc(-c2ccc(-c3cnc(C(=O)Nc4ccc(C(=O)N5CCN(C(=O)C6CC[N+](CC(=O)O)(CC7CNC7)CC6)CC5)c(Cl)c4)n3C)c(F)c2F)c1C (stereo not drawn) [Example B20, 2-[1-(azetidin-3-ylmethyl)-4-[4-[2-chloro-4-[[5-[2,3-difluoro-4-[1-(2-methoxyethyl)-5-methyl-pyrazol-4-yl]phenyl]-1-methyl-imidazole-2-carbonyl]amino]benzoyl]piperazine-1-carbonyl]piperidin-1-ium-1-yl]acetic acid; formic acid; formate]",220
12,"Cc1nn(CC(=O)Nc2ccc[n+](C)c2)cc1-c1ccc(-c2cnc(C(=O)Nc3ccc(C(=O)N4CCN(C(=O)C5CC[N+](C)(C)CC5)CC4)c(Cl)c3)n2C)c(F)c1F [Example G15, N-[3-chloro-4-[4-(1,1-dimethylpiperidin-1-ium-4-carbonyl)piperazine-1-carbonyl]phenyl]-5-[2,3-difluoro-4-[3-methyl-1-[2-[(1-methylpyridin-1-ium-3-yl)amino]-2-oxo-ethyl]pyrazol-4-yl]phenyl]-1-methyl-imidazole-2-carboxamide; diformate]",300
13,"COCCn1cc(-c2ccc(-c3cnc(C(=O)Nc4ccc(C(=O)N5CCN(C(=O)[C@@H]6C[C@@H](O)C[N+]6(C)C)CC5)c(Cl)c4)n3C)c(F)c2F)c(C)n1 [Example D7, N-[3-chloro-4-[4-[(2S,4R)-4-hydroxy-1,1-dimethyl-pyrrolidin-1-ium-2-carbonyl]piperazine-1-carbonyl]phenyl]-5-[2,3-difluoro-4-[1-(2-methoxyethyl)-3-methyl-pyrazol-4-yl]phenyl]-1-methyl-imidazole-2-carboxamide; formate]",150
14,"Cc1nn(CC2CCOCC2)cc1-c1ccc(-c2cnc(C(=O)Nc3ccc(C(=O)N4CCN(C(=O)C5CC[N+](C)(C)CC5)CC4)c(Cl)c3)n2C)c(F)c1F [Example F39, N-[3-chloro-4-[4-(1,1-dimethylpiperidin-1-ium-4-carbonyl)piperazine-1-carbonyl]phenyl]-5-[2,3-difluoro-4-[3-methyl-1-(tetrahydropyran-4-ylmethyl)pyrazol-4-yl]phenyl]-1-methyl-imidazole-2-carboxamide; formate]",340
15,"Cc1c(-c2ccc(-c3cnc(C(=O)Nc4ccc(C(=O)N5CCN(C(=O)C6CC[N+](C)(C)CC6)CC5)c(Cl)c4)n3C)c(F)c2F)cnn1CCNC(=O)NC(C)(C)C [Example H4, 5-[4-[1-[2-(tert-butylcarbamoylamino)ethyl]-5-methyl-pyrazol-4-yl]-2,3-difluoro-phenyl]-N-[3-chloro-4-[4-(1,1-dimethylpiperidin-1-ium-4-carbonyl)piperazine-1-carbonyl]phenyl]-1-methyl-imidazole-2-carboxamide; formate]",160

# Same assay, conditions: Acinetobacter baumannii, ATCC17961, 16 h, read-out: ATCC 17961 IC90
row,Structure (SMILES),IC90 [nM]
1,"COCCn1cc(-c2ccc(-c3cnc(C(=O)Nc4ccc(C(=O)N5CCN(C(=O)C6CC[N+]7(CCNC(=O)C7)CC6)CC5)c(Cl)c4)n3C)c(F)c2F)c(C)n1 (stereo not drawn) [Example Q1, N-[3-chloro-4-[4-(4-oxo-3-aza-6-azoniaspiro[5.5]undecane-9-carbonyl)piperazine-1-carbonyl]phenyl]-5-[2,3-difluoro-4-[1-(2-methoxyethyl)-3-methyl-pyrazol-4-yl]phenyl]-1-methyl-imidazole-2-carboxamide; 2,2,2-trifluoroacetate]",165
